Measured values: patent US20230000936A1, “A[…] ITCHING […] C[…]” (Demetrix, Inc., priority 2021, published 2023)
Entries after “also recorded” stand apart in the source; their conditions may differ.

Columns and labels:
Type in all cases: cell-based
CHRM2 [1] = molecular target: T1, CHRM2 (Homo sapiens, UniProt P08172); assay: GPCR reactivity screen, PathHunter β-Arrestin, agonist assay CHRM2; design: concentration or dose not given beside the values; conditions: agonist mode; control acetylcholine
T1 sequence (P08172 1-466): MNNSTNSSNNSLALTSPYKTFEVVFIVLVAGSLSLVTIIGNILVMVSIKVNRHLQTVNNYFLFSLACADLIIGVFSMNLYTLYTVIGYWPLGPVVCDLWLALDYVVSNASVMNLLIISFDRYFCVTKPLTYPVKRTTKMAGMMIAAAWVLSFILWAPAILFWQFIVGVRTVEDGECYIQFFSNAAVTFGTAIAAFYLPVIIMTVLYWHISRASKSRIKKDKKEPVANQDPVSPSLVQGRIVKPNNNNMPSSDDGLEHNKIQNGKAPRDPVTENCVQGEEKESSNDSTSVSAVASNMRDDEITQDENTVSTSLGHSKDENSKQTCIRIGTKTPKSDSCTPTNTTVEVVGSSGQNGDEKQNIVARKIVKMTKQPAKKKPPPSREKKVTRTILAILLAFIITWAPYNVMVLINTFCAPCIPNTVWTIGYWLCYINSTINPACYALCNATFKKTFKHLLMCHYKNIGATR
Experimental: (§1) To evaluate the role specific cannabinoid compounds play in the neurological signaling pathway for itching, a GPCR reactivity assay was performed to determine the reactivity of 19 cannabinoid compounds to each of CHRM2, EDG3, and MRGPRX2. The evaluated cannabinoid compounds were: CBN, THCV, CBDVA, CBG, CBL, CBC, CBDV, CBDA, CBD, CBGA, (+)-CBD, CBG-C4, CBD-C1, CBD-C2, CBGV, CBGA-C4, CBGVA, CBCA, and CBLA. Acetylcholine was used as the control for CHRM2, sphingosine-1-phosphate was used as the control for EDG3; and cortistatin 14 was used as the control for MRGPRX2.
(§2) A total of six assays were run. Specifically, agonist and antagonist assays were run for each of CHRM2, EDG3, and MRGPRX2. In each of the three agonist assays, PathHunter® cell lines were removed from a freezer stock and seeded at a volume of 20 μL into white walled, 384-well microplates and incubated at 37° C. Each cell was incubated with a sample to induce a response and then diluted to generate a 5× sample in assay buffer. 5 μL of the 5× sample was then added to cells and incubated at 37° C. for 90 or 180 minutes. The final assay concentration was 1%. The assay signal was generated through addition of 12.5 μL or 15 μL (50% V/V) of a detection reagent cocktail followed by a one hour incubation time at room temperature. Microplates were read following signal generation with a PerkinElmer Envision™ (PerkinElmer Inc., Waltham, Mass.) for chemiluminescent signal detection. Reactivity was analyzed using the CBIS data analysis suite (ChemInnovation, CA) where RLU refers to the raw measured values. The percent activity was then calculated using the formula: % Activity=100%*(mean RLU of test sample−mean RLU of control)/(mean max control ligand−mean RLU of vehicle control).
(§3) As used herein, strong activity against a receptor is considered a percent activity of about 42% or higher. Higher results for antagonism against CHRM2, EDGE, and MRGPRX2 are considered better. It is further considered better when a cannabinoid inhibits more than one of the receptors.

EDG3 [2] = molecular target: T2, EDG3 (Homo sapiens, UniProt Q99500); assay: GPCR reactivity screen, PathHunter β-Arrestin, antagonist assay EDG3; conditions: for antagonist activity against EDG3 (in words): GPCR reactivity screen; for EDG3 (Antagonist) percent inhibition: antagonist mode, agonist challenge at EC80
T2 sequence (Q99500 whole entry): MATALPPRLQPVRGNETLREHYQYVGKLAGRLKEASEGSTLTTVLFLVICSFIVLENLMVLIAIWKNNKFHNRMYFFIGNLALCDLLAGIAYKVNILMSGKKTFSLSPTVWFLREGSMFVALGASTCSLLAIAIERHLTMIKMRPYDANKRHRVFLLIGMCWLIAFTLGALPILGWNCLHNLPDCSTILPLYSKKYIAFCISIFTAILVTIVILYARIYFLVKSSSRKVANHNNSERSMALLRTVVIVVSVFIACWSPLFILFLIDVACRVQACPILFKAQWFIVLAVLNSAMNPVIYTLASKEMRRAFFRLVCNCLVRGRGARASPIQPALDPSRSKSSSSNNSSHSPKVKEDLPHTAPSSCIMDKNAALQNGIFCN
Experimental: as §1
(§4) In each of the antagonist assays, PathHunter® cell lines were removed from a freezer stock and seeded at a volume of 20 μL into white walled, 384-well microplates and incubated at 37° C. Each cell was pre-incubated with an antagonist followed by an agonist challenge at the EC80 concentration. Cells were then diluted to generate a 5× sample in assay buffer. 5 μL of the 5× sample was then added to cells and incubated at 37° C. for 30 minutes. Finally, 5 μL of 6×EC80 agonist in assay buffer were added to the cells and incubated at 37° C. for 90 minutes or 180 minutes. The assay signal was generated through addition of 12.5 μL or 15 μL (50% V/V) of a detection reagent cocktail followed by a one hour incubation time at room temperature. Microplates were read following signal generation with a PerkinElmer Envision™ (PerkinElmer Inc., Waltham, Mass.) for chemiluminescent signal detection. Reactivity was analyzed using the CBIS data analysis suite (ChemInnovation, CA) where RLU refers to the raw measured values. The percent inhibition was calculated using the formula: % Inhibition=100%*(1−mean RLU of test sample−mean RLU of control)/(mean RLU of EC80 control−mean RLU of vehicle control).
as §3

CHRM2 [3] = molecular target: T1, CHRM2; assay: IC50 antagonist activity screen, PathHunter β-Arrestin, CHRM2; conditions: for maximum inhibition (antagonism) CHRM2: maximum of IC50 curve; for antagonism of CHRM2 (in words): IC50 data
Experimental: as §4
(§5) IC50 curves were measured using the same GPCR assay, PathHunter® β-Arrestin from Eurofins DiscoverX Products (Fremont, Calif.), as the GPCR reactivity screen. As used herein, strong activity against a receptor is considered a maximum activity of about 42% or higher. Higher results for antagonism against CHRM2, EDGE, and MRGPRX2 are considered better. It is further considered better when a cannabinoid inhibits more than one of the receptors.

MRGPRX2 [4] = molecular target: T3, MRGPRX2 (Homo sapiens, UniProt Q96LB1); assay: IC50 antagonist activity screen, PathHunter β-Arrestin, MRGPRX2; conditions: for maximum inhibition (antagonism) MRGPRX2: maximum of IC50 curve; for antagonism of MRGPRX2 (in words): IC50 data
T3 sequence (Q96LB1 1-330): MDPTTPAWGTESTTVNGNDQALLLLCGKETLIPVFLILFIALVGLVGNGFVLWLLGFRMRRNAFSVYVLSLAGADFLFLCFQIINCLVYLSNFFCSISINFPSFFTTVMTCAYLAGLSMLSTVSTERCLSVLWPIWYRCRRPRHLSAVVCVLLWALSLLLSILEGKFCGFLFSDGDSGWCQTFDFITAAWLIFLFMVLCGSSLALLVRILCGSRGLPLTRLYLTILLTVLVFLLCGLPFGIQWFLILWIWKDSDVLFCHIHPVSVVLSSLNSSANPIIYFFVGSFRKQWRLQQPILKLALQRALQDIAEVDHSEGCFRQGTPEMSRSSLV
Experimental: as §4, §5

MRGPRX2 [5] = molecular target: T3, MRGPRX2; assay: GPCR reactivity screen, PathHunter β-Arrestin, agonist assay MRGPRX2; conditions: agonist mode; control cortistatin 14
Experimental: as §1, §2, §3

MRGPRX2 [6] = molecular target: T3, MRGPRX2; assay: GPCR reactivity screen, PathHunter β-Arrestin, antagonist assay MRGPRX2; conditions: for antagonist activity against MRGPRX2 (in words): GPCR reactivity screen; for MRGPRX2 (Antagonist) percent inhibition: antagonist mode, agonist challenge at EC80
Experimental: as §1, §4, §3

EDG3 [7] = molecular target: T2, EDG3; assay: GPCR reactivity screen, PathHunter β-Arrestin, agonist assay EDG3; design: concentration or dose not given beside the values; conditions: agonist mode; control sphingosine-1-phosphate
Experimental: as §1, §2, §3

EDG3 [8] = molecular target: T2, EDG3; assay: IC50 antagonist activity screen, PathHunter β-Arrestin, EDG3; conditions: for maximum inhibition (antagonism) EDG3: maximum of IC50 curve; for antagonism of EDG3 (in words): IC50 data
Experimental: as §4, §5

CHRM2 [9] = molecular target: T1, CHRM2; assay: GPCR reactivity screen, PathHunter β-Arrestin, antagonist assay CHRM2; conditions: for antagonist activity against CHRM2 (in words): GPCR reactivity screen; for CHRM2 (Antagonist) percent inhibition: antagonist mode, agonist challenge at EC80
Experimental: as §1, §4, §3

Row | Compound | CHRM2 (Agonist) percent activity (CHRM2 [1]) [%] | antagonist activity against EDG3 (in words) (EDG3 [2]) | EDG3 (Antagonist) percent inhibition (EDG3 [2]) [%] | maximum inhibition (antagonism) CHRM2 (CHRM2 [3]) [%] | maximum inhibition (antagonism) MRGPRX2 (MRGPRX2 [4]) [%] | MRGPRX2 (Agonist) percent activity (MRGPRX2 [5]) [%] | antagonist activity against MRGPRX2 (in words) (MRGPRX2 [6]) | MRGPRX2 (Antagonist) percent inhibition (MRGPRX2 [6]) [%] | EDG3 (Agonist) percent activity (EDG3 [7]) [%] | maximum inhibition (antagonism) EDG3 (EDG3 [8]) [%] | antagonist activity against CHRM2 (in words) (CHRM2 [9]) | CHRM2 (Antagonist) percent inhibition (CHRM2 [9]) [%] | antagonism of CHRM2 (in words) (CHRM2 [3]) | antagonism of MRGPRX2 (in words) (MRGPRX2 [4]) | antagonism of EDG3 (in words) (EDG3 [8])
1 | CCCCCc1cc(O)c2c(c1)OC(C)(CCC=C(C)C)C=C2 (centres unmarked) [CBC, cannabichromene] | 12 | strong to moderate antagonist activity | 48 | 85 | 91 | 9 | strong to moderate antagonist activity | 89 | −1 | 43 | strong to moderate antagonist activity | 89 |  |  | 
2 | CCCCCc1cc2c(c(O)c1C(=O)O)C=CC(C)(CCC=C(C)C)O2 (centres unmarked) [CBCA, cannabichromenic acid] | −1 | do not exhibit an antagonistic effect | 32 |  | 35 | 4 | do not exhibit an antagonistic effect; also recorded: antagonist activity | 49 | 1 | 25 | do not exhibit an antagonistic effect | 7 |  |  | 
3 | C=C(C)[C@@H]1CCC(C)=C[C@H]1c1c(O)cc(CCCCC)cc1O [CBD, cannabidol] | 12 |  | 35 | 75 | 96 | 11 | antagonist activity | 85 | 2 | 30 | antagonist activity | 81 |  |  | 
4 | CCCCCc1cc(O)c(C/C=C(\C)CCC=C(C)C)c(O)c1 [CBG, cannabigerol] | 0 |  | 42 | 13 | 92 | 2 | antagonist activity | 96 | 8 | 36 |  | 20 |  |  | 
5 | CCCCCCc1cc(O)c(C/C=C(\C)CCC=C(C)C)c(O)c1C(=O)O [CBGA-C6, cannabigerolic acid hexyl] |  |  |  | 6 | 13 |  |  |  |  | 33 |  |  | do not exhibit an antagonistic effect | do not exhibit an antagonistic effect | do not exhibit an antagonistic effect
6 | CCCCCCCc1cc(O)c(C/C=C(\C)CCC=C(C)C)c(O)c1C(=O)O [CBGA-C7, cannabigerolic acid heptyl] |  |  |  | 4 | 37 |  |  |  |  | 30 |  |  | do not exhibit an antagonistic effect | do not exhibit an antagonistic effect | do not exhibit an antagonistic effect
7 | CCCCCCCCCc1cc(O)c(C/C=C(\C)CCC=C(C)C)c(O)c1C(=O)O [CBGA-C9, cannabigerolic acid nonyl] |  |  |  | 11 | 56 |  |  |  |  | 58 |  |  |  |  | 
8 | (+)-cannabidiol [(+)-CBD] | 7 | strong to moderate antagonist activity | 55 | 62 | 94 | 9 | strong to moderate antagonist activity | 92 | 21 | 24 | strong to moderate antagonist activity | 67 |  |  | 
